# Bridge positions count the residues as written; N and C are the ends. Peptide text beside a SMILES is read from it.
# Legend:
# human Kv1.3 (CHO) = biological target: T1, human Kv1.3 (CHO) (Homo sapiens, UniProt P22001); assay: cell-based
# T1 construct: expressed in transfected cells; host or cells: CHO
# human Kv1.1 (HEK293) = biological target: T2, human Kv1.1 (HEK293) (Homo sapiens, UniProt Q09470); assay: cell-based
# T2 construct: expressed in transfected cells; host or cells: HEK293
# T2 sequence (Q09470 whole entry): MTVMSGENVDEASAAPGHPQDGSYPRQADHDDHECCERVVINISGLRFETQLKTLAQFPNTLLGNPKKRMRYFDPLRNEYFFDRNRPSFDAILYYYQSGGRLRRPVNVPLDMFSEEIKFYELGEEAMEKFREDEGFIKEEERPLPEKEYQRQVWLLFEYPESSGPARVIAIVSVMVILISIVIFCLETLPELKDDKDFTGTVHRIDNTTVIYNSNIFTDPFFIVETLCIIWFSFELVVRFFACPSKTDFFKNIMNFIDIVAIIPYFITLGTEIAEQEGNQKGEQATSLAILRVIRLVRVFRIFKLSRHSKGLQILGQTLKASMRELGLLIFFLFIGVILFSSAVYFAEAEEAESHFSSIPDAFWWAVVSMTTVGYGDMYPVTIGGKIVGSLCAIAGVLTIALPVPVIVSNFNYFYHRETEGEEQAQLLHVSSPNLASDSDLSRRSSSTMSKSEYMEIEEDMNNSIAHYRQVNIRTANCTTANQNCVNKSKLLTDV
# T1 sequence (P22001 whole entry): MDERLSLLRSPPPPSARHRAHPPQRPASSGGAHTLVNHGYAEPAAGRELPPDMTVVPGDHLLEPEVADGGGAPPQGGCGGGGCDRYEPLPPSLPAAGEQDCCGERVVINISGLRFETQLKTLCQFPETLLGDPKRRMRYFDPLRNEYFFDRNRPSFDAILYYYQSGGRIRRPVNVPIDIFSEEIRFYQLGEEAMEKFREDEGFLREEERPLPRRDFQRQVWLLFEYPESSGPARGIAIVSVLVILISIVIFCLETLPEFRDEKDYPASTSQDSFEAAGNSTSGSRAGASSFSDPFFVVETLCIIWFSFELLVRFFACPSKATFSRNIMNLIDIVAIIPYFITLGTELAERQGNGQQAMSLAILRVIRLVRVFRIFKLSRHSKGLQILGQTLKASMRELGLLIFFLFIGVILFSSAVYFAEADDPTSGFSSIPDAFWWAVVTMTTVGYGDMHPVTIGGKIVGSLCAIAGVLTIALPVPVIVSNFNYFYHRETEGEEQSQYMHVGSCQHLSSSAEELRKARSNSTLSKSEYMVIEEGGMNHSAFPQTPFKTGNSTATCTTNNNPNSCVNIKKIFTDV
Compound,IC50 (human Kv1.3 (CHO)) [nM],IC50 (human Kv1.1 (HEK293)) [nM]
"CC[C@H](C)[C@@H]1NC(=O)[C@H](CCCCN)NC(=O)[C@@H](NC(=O)[C@H](CCCCN)NC(=O)[C@@H](NC(=O)[C@H](CC(N)=O)NC(=O)[C@@H](NC(=O)[C@@H](NC(=O)[C@@H](NC(=O)CN)C(C)C)[C@@H](C)CC)[C@@H](C)CC)C(C)C)CSSC[C@@H]2NC(=O)[C@H](CCCCN)NC(=O)CNC(=O)[C@H](Cc3ccccc3)NC(=O)[C@H](CCCNC(=N)N)NC(=O)[C@H](CCSC)NC(=O)CNC(=O)[C@H](C)NC(=O)[C@H](CCCCN)NC(=O)[C@H](C)NC(=O)[C@@H]3CSSC[C@@H](C(=O)N[C@H](C(=O)N4CCC[C@H]4C(=O)N[C@@H](CCCCN)C(=O)O)[C@@H](C)O)NC(=O)[C@H](Cc4c[nH]cn4)NC(=O)[C@H](CSSC[C@H](NC(=O)[C@H](CCC(N)=O)NC(=O)[C@H](CCCNC(=N)N)NC(=O)[C@H](CO)NC1=O)C(=O)N[C@@H](CC(C)C)C(=O)N[C@@H](CCC(=O)O)C(=O)N1CCC[C@H]1C(=O)N3)NC(=O)[C@H](CCCCN)NC(=O)CNC(=O)[C@H](CC(N)=O)NC(=O)[C@H](CCSC)NC2=O [K19A] (H-GVIINVKCKISRQCLEPCAKAGMRFGKCMNGKCHCTPK-OH; disulfide 8-28, 14-33, 18-35)",0.21,0.0168
"CC[C@H](C)[C@@H]1NC(=O)[C@H](CCCCN)NC(=O)[C@@H](NC(=O)[C@H](CCCCN)NC(=O)[C@@H](NC(=O)[C@H](CC(N)=O)NC(=O)[C@@H](NC(=O)[C@@H](NC(=O)[C@@H](NC(=O)CN)C(C)C)[C@@H](C)CC)[C@@H](C)CC)C(C)C)CSSC[C@@H]2NC(=O)[C@H](CCCCN)NC(=O)CNC(=O)[C@H](Cc3ccccc3)NC(=O)[C@H](CCCNC(=N)N)NC(=O)[C@H](CCSC)NC(=O)CNC(=O)[C@H](C)NC(=O)[C@H](CCCCN)NC(=O)[C@H](CCC(=O)O)NC(=O)[C@@H]3CSSC[C@@H](C(=O)N[C@H](C(=O)N4CCC[C@H]4C(=O)N[C@@H](CCCCN)C(=O)O)[C@@H](C)O)NC(=O)[C@H](Cc4c[nH]cn4)NC(=O)[C@H](CSSC[C@H](NC(=O)[C@H](CCC(N)=O)NC(=O)[C@H](CCCNC(=N)N)NC(=O)[C@H](CO)NC1=O)C(=O)N[C@@H](CC(C)C)C(=O)N[C@@H](CCC(=O)O)C(=O)N1CCC[C@H]1C(=O)N3)NC(=O)[C@H](CCCCN)NC(=O)CNC(=O)[C@H](CC(N)=O)NC(=O)[C@H](CCSC)NC2=O [K19E] (H-GVIINVKCKISRQCLEPCEKAGMRFGKCMNGKCHCTPK-OH; disulfide 8-28, 14-33, 18-35)",0.0235,0.0137
"CC[C@H](C)[C@@H]1NC(=O)[C@H](CCCCN)NC(=O)[C@@H](NC(=O)[C@H](CCCCN)NC(=O)[C@@H](NC(=O)[C@H](CC(N)=O)NC(=O)[C@@H](NC(=O)[C@@H](NC(=O)[C@@H](NC(=O)CN)C(C)C)[C@@H](C)CC)[C@@H](C)CC)C(C)C)CSSC[C@@H]2NC(=O)[C@H](CCCCN)NC(=O)CNC(=O)[C@H](Cc3ccccc3)NC(=O)[C@H](CCCNC(=N)N)NC(=O)[C@H](CCSC)NC(=O)CNC(=O)[C@H](C)NC(=O)[C@H](CCCCN)NC(=O)[C@H](CCCNC(=N)N)NC(=O)[C@@H]3CSSC[C@@H](C(=O)N[C@H](C(=O)N4CCC[C@H]4C(=O)N[C@@H](CCCCN)C(=O)O)[C@@H](C)O)NC(=O)[C@H](Cc4c[nH]cn4)NC(=O)[C@H](CSSC[C@H](NC(=O)[C@H](CCC(N)=O)NC(=O)[C@H](CCCNC(=N)N)NC(=O)[C@H](CO)NC1=O)C(=O)N[C@@H](CC(C)C)C(=O)N[C@@H](CCC(=O)O)C(=O)N1CCC[C@H]1C(=O)N3)NC(=O)[C@H](CCCCN)NC(=O)CNC(=O)[C@H](CC(N)=O)NC(=O)[C@H](CCSC)NC2=O [K19R] (H-GVIINVKCKISRQCLEPCRKAGMRFGKCMNGKCHCTPK-OH; disulfide 8-28, 14-33, 18-35)",0.0126,0.00241
"CC[C@H](C)[C@@H]1NC(=O)[C@H](CCCCN)NC(=O)[C@@H](NC(=O)[C@H](CCCCN)NC(=O)[C@@H](NC(=O)[C@H](CC(N)=O)NC(=O)[C@@H](NC(=O)[C@@H](NC(=O)[C@@H](NC(=O)CN)C(C)C)[C@@H](C)CC)[C@@H](C)CC)C(C)C)CSSC[C@@H]2NC(=O)[C@H](CCCCN)NC(=O)CNC(=O)[C@H](Cc3ccccc3)NC(=O)[C@H](CCCNC(=N)N)NC(=O)[C@H](CCSC)NC(=O)CNC(=O)[C@H](C)NC(=O)[C@H](C)NC(=O)[C@H](CCCCN)NC(=O)[C@@H]3CSSC[C@@H](C(=O)N[C@H](C(=O)N4CCC[C@H]4C(=O)N[C@@H](CCCCN)C(=O)O)[C@@H](C)O)NC(=O)[C@H](Cc4c[nH]cn4)NC(=O)[C@H](CSSC[C@H](NC(=O)[C@H](CCC(N)=O)NC(=O)[C@H](CCCNC(=N)N)NC(=O)[C@H](CO)NC1=O)C(=O)N[C@@H](CC(C)C)C(=O)N[C@@H](CCC(=O)O)C(=O)N1CCC[C@H]1C(=O)N3)NC(=O)[C@H](CCCCN)NC(=O)CNC(=O)[C@H](CC(N)=O)NC(=O)[C@H](CCSC)NC2=O [K20A] (H-GVIINVKCKISRQCLEPCKAAGMRFGKCMNGKCHCTPK-OH; disulfide 8-28, 14-33, 18-35)",1.04,0.185
"CC[C@H](C)[C@@H]1NC(=O)[C@H](CCCCN)NC(=O)[C@@H](NC(=O)[C@H](CCCCN)NC(=O)[C@@H](NC(=O)[C@H](CC(N)=O)NC(=O)[C@@H](NC(=O)[C@@H](NC(=O)[C@@H](NC(=O)CN)C(C)C)[C@@H](C)CC)[C@@H](C)CC)C(C)C)CSSC[C@@H]2NC(=O)[C@H](CCCCN)NC(=O)CNC(=O)[C@H](Cc3ccccc3)NC(=O)[C@H](CCCNC(=N)N)NC(=O)[C@H](CCSC)NC(=O)CNC(=O)[C@H](C)NC(=O)[C@H](CCC(=O)O)NC(=O)[C@H](CCCCN)NC(=O)[C@@H]3CSSC[C@@H](C(=O)N[C@H](C(=O)N4CCC[C@H]4C(=O)N[C@@H](CCCCN)C(=O)O)[C@@H](C)O)NC(=O)[C@H](Cc4c[nH]cn4)NC(=O)[C@H](CSSC[C@H](NC(=O)[C@H](CCC(N)=O)NC(=O)[C@H](CCCNC(=N)N)NC(=O)[C@H](CO)NC1=O)C(=O)N[C@@H](CC(C)C)C(=O)N[C@@H](CCC(=O)O)C(=O)N1CCC[C@H]1C(=O)N3)NC(=O)[C@H](CCCCN)NC(=O)CNC(=O)[C@H](CC(N)=O)NC(=O)[C@H](CCSC)NC2=O [K20E] (H-GVIINVKCKISRQCLEPCKEAGMRFGKCMNGKCHCTPK-OH; disulfide 8-28, 14-33, 18-35)",0.0254,0.00576
"CC[C@H](C)[C@@H]1NC(=O)[C@H](CCCCN)NC(=O)[C@@H](NC(=O)[C@H](CCCCN)NC(=O)[C@@H](NC(=O)[C@H](CC(N)=O)NC(=O)[C@@H](NC(=O)[C@@H](NC(=O)[C@@H](NC(=O)CN)C(C)C)[C@@H](C)CC)[C@@H](C)CC)C(C)C)CSSC[C@@H]2NC(=O)[C@H](CCCCN)NC(=O)CNC(=O)[C@H](Cc3ccccc3)NC(=O)[C@H](CCCNC(=N)N)NC(=O)[C@H](CCSC)NC(=O)CNC(=O)[C@H](C)NC(=O)[C@H](CCCNC(=N)N)NC(=O)[C@H](CCCCN)NC(=O)[C@@H]3CSSC[C@@H](C(=O)N[C@H](C(=O)N4CCC[C@H]4C(=O)N[C@@H](CCCCN)C(=O)O)[C@@H](C)O)NC(=O)[C@H](Cc4c[nH]cn4)NC(=O)[C@H](CSSC[C@H](NC(=O)[C@H](CCC(N)=O)NC(=O)[C@H](CCCNC(=N)N)NC(=O)[C@H](CO)NC1=O)C(=O)N[C@@H](CC(C)C)C(=O)N[C@@H](CCC(=O)O)C(=O)N1CCC[C@H]1C(=O)N3)NC(=O)[C@H](CCCCN)NC(=O)CNC(=O)[C@H](CC(N)=O)NC(=O)[C@H](CCSC)NC2=O [K20R] (H-GVIINVKCKISRQCLEPCKRAGMRFGKCMNGKCHCTPK-OH; disulfide 8-28, 14-33, 18-35)",0.00985,< 0.00152

# From patent US20090299044A1 (priority 2006, published 2009)
